Test results: patent US10519423B1, “High efficiency reprogramming of fibroblasts into cardiomyocytes” (The Regents of the University of Colorado, a body corporate, priority 2015, dated 2019)

How the values were obtained:
Assay type in all cases: cell-based, mouse
[1] = test system: adult tail-tip fibroblasts (ATTFs); experiment: Immunocytochemistry for cTnT and α-actinin in adult tail-tip fibroblasts; conditions: GHMT2m-infected ATTFs; DMSO or A83-01 for 2 weeks
Method: (§1) Hearts or skinned tails from adult C57BL6 mice were cut into small pieces with ˜1 mm diameter. The biopsies were seeded on a 10 cm culture dish and incubated with 10 mL of growth medium (DMEM/Hi glucose (Hyclone), 10% FBS (Gemini:), 1.1% Penicillin-Streptomycin (Gibco) and 1.1% GlutaMAX supplement (Gibco)) at 37° C. with 5% CO2. TTFs migrated out of the biopsies after 3 days. The media were changed every other day. Once the TTFs have reached a 70-80% confluence, the cells were harvested and stored for future use.
(§2) Fibroblasts were plated on tissue culture dishes pre-coated with SureCoat (Cellutron) at a density of ˜40 cells/mm^2 before transduction. The fibroblast growth medium was replaced with freshly made viral mixture containing polybrene (Sigma). Twenty-four hours later, fibroblasts were infected again with viral mixture containing polybrene. Twenty fours later, the viral medium was replaced with induction medium, composed of DMEM/199 (4:1) (Gibco), 10% FBS (Gemini), 5% horse serum(Gemini), antibiotics (Gibco), 1× non-essential amino acids (Gibco), 1× essential amino acids (Gibco), 1× B-27 (Gibco), 1× insulin-selenium-transferin (Gibco), 1× vitamin mixture (Gibco), and 1× sodium pyruvate (Gibco). Medium was changed every two-three days until cells were examined.
(§3) Cells were fixed in 2% PFA for 15 min on ice then washed with DPBS (Gibco) three times at RT. […]

[2] = test system: MEFs; experiment: qPCR of cardiac genes in reprogramming MEFs; conditions: reprogramming MEFs treated with A83-01 for 5 days, day 7
Method: (§4) Cells were harvested in TRizol reagent (Ambion) for RNA isolation. RNA was extracted with the RNeasy® Plus Universal Mini Kit (Qiagen). RT-PCR was performed using the Superscript III first-strand synthesis system (Invitrogen). qPCR was performed using the SYBR® Green PCR master mix (Applied Biosystems) or StepOne™ Real-Time PCR Systems (Applied Biosystems). Primers are listed in Supplementary Table 1. Ryr2 (Mm00465877_m1) and Myh7 (Mm01319006_91) are Taqman probes (Life technologies).

[3] = test system: MEFs; experiment: Immunocytochemistry for cTnT and α-actinin in infected MEFs; conditions: day 14, without or with A83-01
Method: as §2
Cells were fixed in 2% PFA for 15 min on ice then washed with DPBS (Gibco) three times at RT. The cells were permeabilized in 0.5% Triton X-100 (made in PBS) for 20 min at RT. After washing the cells with DPBS (Gibco), cells were incubated with the primary antibody against α-actinin (Sigma A7811, 1:300), Connexin 43 (Sigma, C6219, 1:500), Troponin T (Thermo Scientific MS-245-P, 1:500), α-SMA (Santa Cruz Biotechnology, SC-32251, 1:800), Myl2 (Proteintech, 10906-1-AP, 1:200), or Myl7 (Proteintech, 17283-1-AP, 1:200) in 10% FBS(Gemini) in DPBS for 1 hour at RT. Cells were wash with DPBS three times, 5 min each. Cell were incubated with the secondary antibody (Alexa Fluor 555 Molecular Probes A21422, 1:1000) and Hoechest (Molecular Probes 33342, 1:5000) for 30 mins at RT.

[4] = test system: adult cardiac fibroblasts (ACFs); experiment: Immunocytochemistry for cTnT and α-actinin in adult cardiac fibroblasts; conditions: by 4 weeks, without or with A83-01
Method: as §1, §2, §3

[5] = test system: MEFs; experiment: Intracellular staining for flow cytometry (cTnT, Myc) in retrovirus-infected MEFs; conditions: for cTnThigh fraction: day 7
Method: C57BL6 pregnant mice at E13 were order from Charles River's laboratory. Embryos at E14.5 were harvested and their internal organs and head were removed. The body below the liver was minced using blade to fine pieces. Minced embryos were incubated with 2 ml of 0.25% trypsinIl mM EDTA, Phenol Red (Gibco) for 40 mins at 37° C. with 5% CO2. Cells were suspended in 25 ml of growth medium (DMEM/Hi glucose (Hyclone) 10% FBS (Gemini), 1.1% Penicillin-Streptomycin (Gibco) and 1.1% GlutaMAX supplement (Gibco)) and then plated on a 15 cm dish. In 24 hours, the media was aspirated and new 25 ml of growth medium was added. In 72 hours, MEFs were harvested and stored for future use.
as §2
Adherent fibroblasts were washed with DPBS (Gibco). Cells were detached from culture dish by treatment with 0.25% Trypsin/EDTA (Gibco) for 3 min at 37° C. Cells were then washed with 4 ml of 5% FBS (Gemini) in DPBS filtered through a cell strainer and centrifuge at 1200 rpm×6 mins. Cells were washed with 500 ul of 1% BSA in DPBS. Cells were fixed with BD Cytofix/Cytoperm™ solution in 0.2 ml/1 million cells in 1.5 ml eppendorf tube for 20 min on ice. Cells were washed with 1 ml of BD perm/wash buffer and Centrifuged for 6 min at 1200 rpm. The supernatant was discarded; cells were washed again with 1 ml of BD Perm/wash buffer and left overnight at 4° C. The next day, Cells were centrifuged for 6 min at 1200 rpm, the supernatant discarded and 100 μl of Blocking buffer made with 5% goat, donkey serum (Sigma: G9023 and D9663) in Perm/wash buffer was added to the cells and incubated for 30 min at RT. A primary antibody: Mouse Troponin T (cTnT) antibody (Thermo Scientific, ms-295-p, 1:200), mouse anti-C-Myc antibody (BD Pharmingen, 551102, 1:200) in 100 μl BD Perm/Wash buffer was added to the cells and incubated for 1 hr at RT. One ml cold BD Perm/wash buffer was added to the cells and centrifuged for 6 min at 1200 rpm. […] Cells were re-suspended in 300 ul of 1% BSA/DPBS and then analyzed using FACS Caliber (BD Sciences) and FlowJo software.

[6] = test system: TTFs; experiment: qPCR of cardiac genes in tail-tip fibroblasts; conditions: GHMT2m-TTFs treated with A83-01 for 4 weeks
Method: as §1, §4

Cc1cccc(-c2nn(C(=S)Nc3ccccc3)cc2-c2ccnc3ccccc23)n1 [A83-01]
adult TTFs positive for cTnT and α-actinin [1]: approximately 30%
program of cardiomyocyte gene expression [2]: enhanced
proportion of cTnT+ cells (immunostaining) ([3]; GHMT2m-cultures of MEFs): ~67%
proportion of α-actinin+ cells (immunostaining) ([3]; GHMT2m-cultures of MEFs): ~64%
proportion of cTnT+ cells (immunostaining) ([3]; GHMT-cultures of MEFs): approximately 58%
proportion of α-actinin+ cells (immunostaining) ([3]; GHMT-cultures of MEFs): approximately 57%
ACFs positive for cTnT ([4]; GHMT2m-infected ACFs): approximately 18%
ACFs positive for cTnT ([4]; GHMT-infected ACFs): approximately 10%
cTnThigh fraction ([5]; GHMT2m-infected MEFs, alone or treated with A83-01 (0.5 μM, day 3 to day 7)): approximately 45.6%
cTnThigh fraction ([5]; GHMT-infected MEFs, alone or treated with TGF-β1 (10 ng/ml) or A83-01 (0.5 μM, day 3 to day 7)): approximately 30.7%
induction of cTnT+ cells by the small molecule alone ([5]; MEFs without reprogramming factors, flow cytometry): did not induce cTnT+ cells
cardiomyocyte gene expression [6]: Enhanced
